Laboratory results: PMC4430089 (Journal of peptide science : an official publication of the …, 2014)

Assays:
[1] = test system: 3T3 Swiss mice fibroblasts; assay: Cellular uptake by confocal microscopy; assay type: cell-based; conditions: 15 μM peptide in PBS, 30 min; for Preferential accumulation site within the cell: confocal microscopy without DAPI; for Cellular uptake (FITC fluorescence from cells): confocal microscopy, 37°C
[2] = test system: 3T3 Swiss mice fibroblasts; assay: Cell viability, Trypan Blue assay; conditions: 15 μM peptide in PBS, 30 min exposure, three repeats on two plates
[3] = test system: Jurkat E6 human leukemia cells; assay: Cellular uptake by flow cytometry; assay type: cell-based; conditions: 15μM peptide, 10 min
[4] = Circular dichroism: conformation and thermal unfolding; assay type: physicochemical; conditions: for FF @ 37°C (folded fraction): calculated from CD molar ellipticity at 224 nm: FF=CD37-CD80/CDfolded-CD80

Substance	Preferential accumulation site within the cell [1]	Cellular uptake (FITC fluorescence from cells) [1]	Cytotoxicity compared to control (cell viability) [2]	Fluorescence intensity of cells lower than cells incubated with V2 [3]	Number of cells that uptake the peptide [3] [%]	FF @ 37°C (folded fraction) [4]	Tm lower than Tm of V1 ([4]; difference of CD Tm values) [°C]
FITC-AβGG-POGPOGPOGPOGPOGPOGPOGPOG-RRGRRG [Peptide V1]	accumulates to larger extend in cytoplasm than V2, with only small amount reaching the nucleus	effectively penetrate the cellular membrane	no significant (p>0.05) toxicity	about 20%	71.2	0.90	–
FITC-AβGG-POGPOGPOGPOGPOGPOGPOGPOG-RRRRRR [Peptide V2]	stronger preference to accumulate within the nuclear bodies	effectively penetrate the cellular membrane	no significant (p>0.05) toxicity	–	72.8	0.82	3.2
